Read-outs that look alike come from different tables or passages of the source. One block for each compound: values may come before it.
Experiments:
MCF7 = test: MTT viability, 7 days treatment, MCF7; type: cell-based; conditions: Homo sapiens, 168 h, MCF7, 7 days treatment
From the text: (§1) FIG. 8. Activity of NSD inhibitors in breast cancer cell lines.

ZR-75-1 = test: MTT viability, 7 days treatment, ZR-75-1; type: cell-based; conditions: Homo sapiens, 168 h, ZR-75-1, 7 days treatment
From the text: as §1

MDA-MB-468 = test: MTT viability, 7 days treatment, MDA-MB-468; type: cell-based; conditions: Homo sapiens, 168 h, MDA-MB-468, 7 days treatment
From the text: as §1

SUM44 = test: Viability, 7 days treatment, SUM44; type: cell-based; conditions: 168 h; SUM44, 7 days treatment
From the text: as §1

NSD1 [1] = target: T1, NSD1 (Homo sapiens, UniProt Q96L73); test: Mass spectrometry detection of covalent/irreversible binding to NSD1
T1 construct: 6 μM of 159 was incubated with 1 mM of NSD1 SET domain for 8 hours
T1 sequence (Q96L73 1852-2082 limits assumed): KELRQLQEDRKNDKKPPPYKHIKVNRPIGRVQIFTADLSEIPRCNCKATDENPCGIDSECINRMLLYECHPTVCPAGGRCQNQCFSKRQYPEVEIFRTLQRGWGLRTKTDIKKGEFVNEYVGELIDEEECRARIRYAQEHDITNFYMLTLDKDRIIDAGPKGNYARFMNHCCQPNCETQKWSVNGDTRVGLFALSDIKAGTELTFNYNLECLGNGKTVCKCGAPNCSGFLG
Protocol: (§2) 10 μM 151 was incubated with NSD1 for 20 h. B. HSQC spectrum of 150 μM NSD1 with 300 μM 151.
6 μM of 159 was incubated with 1 mM of NSD1 SET domain for 8 hours.
FIG. 7. […] Asterisk denotes covalent protein adduct with 198.

[2] = target: T2, NSD1 (1753-2095 fragment) (Homo sapiens, UniProt Q96L73); test: CETSA assay in HeLa cells; type: cell-based; conditions: HeLa cells treated with 5 μM compound
T2 construct: expressed in transfected cells; host or cells: HeLa cells
T2 sequence (Q96L73 1753-2095): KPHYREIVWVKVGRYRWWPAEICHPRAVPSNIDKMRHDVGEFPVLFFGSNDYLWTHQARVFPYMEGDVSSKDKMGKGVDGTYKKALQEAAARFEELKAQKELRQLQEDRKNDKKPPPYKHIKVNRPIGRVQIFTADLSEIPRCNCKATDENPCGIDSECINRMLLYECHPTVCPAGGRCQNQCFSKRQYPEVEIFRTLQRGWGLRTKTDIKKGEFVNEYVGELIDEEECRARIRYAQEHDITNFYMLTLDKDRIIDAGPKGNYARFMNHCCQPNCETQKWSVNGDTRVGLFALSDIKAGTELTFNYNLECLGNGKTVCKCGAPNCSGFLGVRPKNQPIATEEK

Nup98-NSD1 cells [3] = test: MTT growth inhibition assay, Nup98-NSD1 cells; type: cell-based; conditions: 3, 7 and 10 days
HM-2 cells = test: MTT proliferation assay, control HM-2 cells; type: cell-based
Nup98-NSD1 cells [4] = test: Cytospins, differentiation of Nup98-NSD1 cells; type: cell-based
[5] = test system: Nup98-NSD1 subcutaneous model; test: Nup98-NSD1 subcutaneous leukemia model in mice; type: in vivo; conditions: 25 mg/kg q.d., I.P.
Protocol: FIG. 6A-F. Pharmacokinetics and efficacy of 159 in Nup98-NSD1 leukemia model. A. Pharmacokinetics studies in mice treated with 25 mg/kg of 159 using I.P. administration. B. Efficacy in Nup98-NSD1 subcutaneous model. Mice were treated with 25 mg/kg q.d., I.P. C. Representative tumors from vehicle and 159 treated mice. […] E. Immuno-histochemistry analysis of H3K36me2 level in tumor samples of mice treated with vehicle (top) and 159 (bottom). […] F. Body weight of 159 treated animals.

NSD1 [6] = target: NSD1 (Homo sapiens, UniProt Q96L73); test: HSQC NMR spectrum of NSD1 with compound; type: binding; conditions: 150 μM NSD1 with 300 μM compound; including Cys2062
Protocol: as §2
Target sequence in this assay (Q96L73 whole entry, the tested form may be a part): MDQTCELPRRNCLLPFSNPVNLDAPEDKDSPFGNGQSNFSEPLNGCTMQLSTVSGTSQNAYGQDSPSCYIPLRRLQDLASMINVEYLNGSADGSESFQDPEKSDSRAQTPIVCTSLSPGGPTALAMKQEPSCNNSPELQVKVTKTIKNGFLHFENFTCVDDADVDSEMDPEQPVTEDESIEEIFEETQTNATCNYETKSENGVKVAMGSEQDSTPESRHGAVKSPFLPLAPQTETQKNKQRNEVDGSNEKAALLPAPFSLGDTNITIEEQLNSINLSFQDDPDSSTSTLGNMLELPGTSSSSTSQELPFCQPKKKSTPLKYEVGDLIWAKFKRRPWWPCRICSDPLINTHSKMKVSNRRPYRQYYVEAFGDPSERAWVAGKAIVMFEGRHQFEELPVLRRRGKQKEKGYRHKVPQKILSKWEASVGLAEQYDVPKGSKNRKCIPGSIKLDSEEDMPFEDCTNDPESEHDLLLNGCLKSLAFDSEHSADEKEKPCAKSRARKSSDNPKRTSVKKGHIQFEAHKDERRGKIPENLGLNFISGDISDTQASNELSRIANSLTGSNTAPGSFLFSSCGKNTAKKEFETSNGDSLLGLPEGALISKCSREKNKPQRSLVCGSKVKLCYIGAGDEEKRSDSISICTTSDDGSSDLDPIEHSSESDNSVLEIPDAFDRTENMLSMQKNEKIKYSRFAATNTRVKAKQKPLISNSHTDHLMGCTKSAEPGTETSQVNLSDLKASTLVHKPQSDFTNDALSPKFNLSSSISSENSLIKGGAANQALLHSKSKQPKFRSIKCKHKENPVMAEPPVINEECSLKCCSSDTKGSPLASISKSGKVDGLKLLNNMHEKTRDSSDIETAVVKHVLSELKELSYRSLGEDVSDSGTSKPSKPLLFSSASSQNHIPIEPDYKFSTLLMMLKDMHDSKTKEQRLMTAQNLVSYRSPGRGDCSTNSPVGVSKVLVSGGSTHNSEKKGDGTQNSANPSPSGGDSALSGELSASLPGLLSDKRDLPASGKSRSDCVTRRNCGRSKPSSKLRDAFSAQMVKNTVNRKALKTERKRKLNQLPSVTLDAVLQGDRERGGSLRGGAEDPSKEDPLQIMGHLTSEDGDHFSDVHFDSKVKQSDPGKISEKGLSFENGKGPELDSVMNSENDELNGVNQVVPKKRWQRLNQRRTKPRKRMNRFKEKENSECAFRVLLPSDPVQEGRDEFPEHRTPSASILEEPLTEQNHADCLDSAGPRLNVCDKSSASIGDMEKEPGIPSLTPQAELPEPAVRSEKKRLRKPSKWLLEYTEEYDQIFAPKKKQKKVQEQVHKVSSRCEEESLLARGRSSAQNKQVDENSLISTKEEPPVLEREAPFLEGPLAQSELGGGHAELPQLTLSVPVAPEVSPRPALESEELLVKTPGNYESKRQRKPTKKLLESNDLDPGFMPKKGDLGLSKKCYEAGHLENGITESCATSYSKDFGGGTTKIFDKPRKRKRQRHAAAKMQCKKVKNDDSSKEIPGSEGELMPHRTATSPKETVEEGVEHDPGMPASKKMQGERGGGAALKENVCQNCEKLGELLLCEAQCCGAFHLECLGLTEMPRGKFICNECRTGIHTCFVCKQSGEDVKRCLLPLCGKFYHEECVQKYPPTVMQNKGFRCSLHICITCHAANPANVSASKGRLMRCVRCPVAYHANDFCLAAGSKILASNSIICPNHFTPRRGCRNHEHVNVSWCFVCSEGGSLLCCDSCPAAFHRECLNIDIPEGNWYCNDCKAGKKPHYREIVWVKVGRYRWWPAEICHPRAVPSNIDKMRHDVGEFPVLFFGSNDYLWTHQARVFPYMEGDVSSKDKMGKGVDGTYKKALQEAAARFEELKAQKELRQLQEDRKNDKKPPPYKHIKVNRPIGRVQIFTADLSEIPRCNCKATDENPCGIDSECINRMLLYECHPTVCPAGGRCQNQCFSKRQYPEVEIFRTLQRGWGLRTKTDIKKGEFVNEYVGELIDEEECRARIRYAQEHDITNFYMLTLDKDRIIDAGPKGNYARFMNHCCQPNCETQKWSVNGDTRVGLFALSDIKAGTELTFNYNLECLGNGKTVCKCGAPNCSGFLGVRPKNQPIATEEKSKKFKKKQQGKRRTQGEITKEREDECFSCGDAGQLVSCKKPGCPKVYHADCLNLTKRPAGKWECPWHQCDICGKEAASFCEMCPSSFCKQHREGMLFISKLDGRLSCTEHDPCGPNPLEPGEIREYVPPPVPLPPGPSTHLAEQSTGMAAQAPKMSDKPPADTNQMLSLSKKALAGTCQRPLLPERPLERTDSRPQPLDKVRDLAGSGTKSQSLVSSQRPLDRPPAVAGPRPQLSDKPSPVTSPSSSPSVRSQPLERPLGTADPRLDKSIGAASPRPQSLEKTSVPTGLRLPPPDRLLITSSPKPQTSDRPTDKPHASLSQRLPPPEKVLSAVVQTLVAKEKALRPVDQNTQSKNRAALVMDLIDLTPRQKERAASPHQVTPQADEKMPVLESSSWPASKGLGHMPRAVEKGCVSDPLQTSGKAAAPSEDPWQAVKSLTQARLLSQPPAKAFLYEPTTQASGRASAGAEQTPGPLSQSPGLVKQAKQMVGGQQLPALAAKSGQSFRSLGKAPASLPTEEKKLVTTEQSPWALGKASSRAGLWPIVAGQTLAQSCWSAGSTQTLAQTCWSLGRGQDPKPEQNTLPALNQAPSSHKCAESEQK

GI50 (MCF7; read-out: GI50, viability): 487 nM
GI50 (MDA-MB-468; read-out: GI50, viability): 31 nM
Compound: C=CS(=O)(=O)NCc1cccc(NCC#Cc2cc(O)c3nc(N)sc3c2)c1F [Compound 225]
GI50 (ZR-75-1; read-out: GI50, viability): 53 nM
GI50 (SUM44): 341 nM

Compound: Nc1nc2c(O)cc(N3CC3Cc3ccccc3Cl)cc2s1 (stereo not shown) [Compound 159, 2-Amino-6-(2-(2-chlorobenzyl)aziridin-1-yl)benzo[d]thiazol-4-ol]
Covalent engagement of NSD1 by mass spectrometry (NSD1 [1]; 6 μM compound incubated with 1 mM of NSD1 SET domain for 8 hours): binds covalently
CETSA stabilization of NSD1 (1753-2095 fragment) [2]: stabilization of NSD1
Growth inhibition of Nup98-NSD1 cells (MTT) (Nup98-NSD1 cells [3]): time-dependent (3, 7 and 10 days) growth inhibition
Proliferation of control HM-2 cells (MTT) (HM-2 cells): does not inhibit proliferation
Differentiation of Nup98-NSD1 cells (cytospins) (Nup98-NSD1 cells [4]): differentiation of Nup98-NSD1 cells induced
Expression of Hoxa7 in tumors [5]: reduced expression of Hoxa7
H3K36me2 level in tumor samples (immuno-histochemistry) [5]: Strong reduction of H3K36me2 level

GI50 (MCF7; read-out: GI50, MTT viability): 1500 nM
GI50 (MDA-MB-468; read-out: GI50, MTT viability): 35 nM
Compound: C=CS(=O)(=O)NCc1cccc(NCC#Cc2cc(O)c3nc(N)sc3c2)c1Cl [Compound 230]
GI50 (ZR-75-1; read-out: GI50, MTT viability): 100 nM

Compound: CC1CN1c1cc(O)c2nc(N)sc2c1 (stereo not shown) [Compound 151]
Irreversible binding to NSD1 detected by MS (NSD1 [1]; 10 μM compound incubated with NSD1 for 20 h): Irreversible binding
HSQC spectrum perturbation of NSD1 residues (NSD1 [6]): Several perturbed residues
